Experimental data reported in US8835429B2, “Pyrimidine compounds, their use as mTOR kinase and Pl3 kinase inhibitors, and their syntheses” (Wyeth LLC, priority 2009, dated 2014).
pIC50: −log10 of the molar value.

Experiments:
LNCap = test: In vitro cell growth assay (MTS), LNCap; format: cell-based; details: LNCaP, 72 h, human prostate line, three days after drug treatment
mTOR = mTOR (Homo sapiens, UniProt P42345); test: mTOR enzyme assay (DELFIA, purified FLAG-TOR, His6-S6K substrate); format: biochemical; set-up: FLAG; details: 100 μM ATP, 2 hours
PI3K-alpha = PI3K-alpha (Homo sapiens, UniProt P42336); test: PI3K-alpha fluorescence polarization assay; format: biochemical; details: 20 μM PIP2, 25 μM ATP; read-out: PI3Kα IC50
In short: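 PIP2 (diC8) and ATP substrate with PI3K in 20 mM HEPES pH 7.5, 2 mM MgCl2, 0.05% CHAPS, 0.01% βME; 1% DMSO final; 30–60 min reaction. Stopped with EDTA plus GST-GRP (70 nM) and TAMRA probe (10 nM); FP (mP) read after 30–90 min, with no-enzyme controls.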

PI3K-gamma = PI3K-gamma (Homo sapiens, UniProt P48736); test: PI3K-gamma fluorescence polarization assay; format: biochemical; details: 20 μM PIP2, 25 μM ATP; read-out: PI3Kγ IC50
Method: The reaction buffer was 20 mM HEPES, pH 7.5, 2 mM MgCl2, 0.05% CHAPS; and 0.01% βME (added fresh). The stop/detection buffer was 100 mM HEPES, pH 7.5, 4 mM EDTA, 0.05% CHAPS; ATP 20 mM in water; PIP2 (diC8, Echelon, Salt Lake City Utah cat #P-4508) 1 mM in water (MW=856.5). The GST-GRP was 1.75 mg/mL or 1.4 mg/mL in 10% glycerol. The red detector (TAMRA) was 2.5 μM. Nunc 384-well black polypropylene fluorescent plates were used for PI3K assays.
The assay is run by placing 5 μL of diluted enzyme per well, then 5 μL of diluted compound (or 9.5 μL enzyme then 0.5 μL compound in DMSO) is added and mixed. Then, 10 μL substrate is added to start the reaction. The samples are incubated 30-60 minutes, then the reaction is stopped by adding 20 μL stop/detector mix. PI3K is diluted with reaction buffer (e.g., 5 μL or 7.5 μL PI3K into 620 μL reaction buffer), and 5 μL of diluted enzyme is used per well. A 5 μL portion of reaction buffer or of drug diluted in buffer (e.g., 4 μL/100 so final DMSO is 1% in reaction) is added to each. Pipetting up and down mixes the samples. Alternatively, the enzyme can be diluted to 1215 μL. In this case 9.8 μL is added per well and 0.2 μL compound is added in DMSO.
To prepare 1 mL of substrate solution, 955 μL reaction buffer, 40 μL PIP2, and 2.5 μL ATP are mixed. 10 μL of substrate is added to each well to start the reaction. […] The stop/detector mix is prepared by mixing 4 μL red detector and 1.6 μL or 2.0 μL GST-GRP with 1 mL stop buffer, which results in 10 nM probe and 70 nM GST-GRP. 20 μL of the stop/detector mix is added to each well to stop the reaction. The plates are read after 30-90 minutes keeping the red probe solutions dark. For the zero time point, stop/detector mix is added to the enzyme just before adding substrate. For an extra control, stop/detector mix is added to buffer (no enzyme) and substrate or to just buffer (no substrate). […] The recommended reaction has 0.06 μL per 20 μL (0.015 μg/20 μL) or 0.01125 μg/15 μL or 0.75 μg/mL.
Plates are read on machines with filters for TAMRA. The units are mP with no enzyme controls reading app 190-220 mP units. Fully active enzyme reduces fluorescence polarization down to 70-100 mP after 30 minutes. An active compound raises the mP values halfway to control or to 120-150 mP units.

MDA468 = test: In vitro cell growth assay (MTS), MDA468; format: cell-based; details: 72 h, human breast line MDA468, three days after drug treatment, read-out: MDA IC50

PI3K-alpha, sequence (P42336 whole entry, species assumed): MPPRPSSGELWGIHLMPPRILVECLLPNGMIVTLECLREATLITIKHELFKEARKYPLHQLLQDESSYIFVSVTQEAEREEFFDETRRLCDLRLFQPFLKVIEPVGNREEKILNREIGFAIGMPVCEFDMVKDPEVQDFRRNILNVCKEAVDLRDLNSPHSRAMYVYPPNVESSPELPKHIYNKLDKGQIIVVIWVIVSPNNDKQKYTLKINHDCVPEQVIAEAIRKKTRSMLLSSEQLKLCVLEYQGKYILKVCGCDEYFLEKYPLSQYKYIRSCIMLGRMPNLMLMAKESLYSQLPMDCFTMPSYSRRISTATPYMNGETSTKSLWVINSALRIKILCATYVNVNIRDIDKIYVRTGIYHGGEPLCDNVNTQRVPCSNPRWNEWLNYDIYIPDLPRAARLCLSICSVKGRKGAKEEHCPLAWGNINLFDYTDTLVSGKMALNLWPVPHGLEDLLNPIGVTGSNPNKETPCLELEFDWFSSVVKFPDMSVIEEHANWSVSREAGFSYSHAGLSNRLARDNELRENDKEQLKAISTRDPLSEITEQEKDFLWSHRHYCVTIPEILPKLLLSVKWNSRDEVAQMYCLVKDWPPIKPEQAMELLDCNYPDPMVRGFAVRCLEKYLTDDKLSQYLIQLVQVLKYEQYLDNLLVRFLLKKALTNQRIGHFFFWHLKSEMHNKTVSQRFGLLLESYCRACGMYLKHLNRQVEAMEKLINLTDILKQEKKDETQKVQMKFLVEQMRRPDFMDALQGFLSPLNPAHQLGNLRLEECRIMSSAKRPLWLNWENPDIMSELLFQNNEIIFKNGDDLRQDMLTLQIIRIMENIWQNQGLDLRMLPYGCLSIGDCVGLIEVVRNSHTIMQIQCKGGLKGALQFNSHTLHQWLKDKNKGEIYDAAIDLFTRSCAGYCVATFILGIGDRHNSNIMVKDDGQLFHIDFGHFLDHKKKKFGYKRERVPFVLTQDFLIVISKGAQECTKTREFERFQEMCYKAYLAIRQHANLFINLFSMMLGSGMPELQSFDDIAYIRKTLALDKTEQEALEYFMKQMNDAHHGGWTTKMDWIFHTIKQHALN
PI3K-alpha, sequence (P27986 whole entry partner, species assumed): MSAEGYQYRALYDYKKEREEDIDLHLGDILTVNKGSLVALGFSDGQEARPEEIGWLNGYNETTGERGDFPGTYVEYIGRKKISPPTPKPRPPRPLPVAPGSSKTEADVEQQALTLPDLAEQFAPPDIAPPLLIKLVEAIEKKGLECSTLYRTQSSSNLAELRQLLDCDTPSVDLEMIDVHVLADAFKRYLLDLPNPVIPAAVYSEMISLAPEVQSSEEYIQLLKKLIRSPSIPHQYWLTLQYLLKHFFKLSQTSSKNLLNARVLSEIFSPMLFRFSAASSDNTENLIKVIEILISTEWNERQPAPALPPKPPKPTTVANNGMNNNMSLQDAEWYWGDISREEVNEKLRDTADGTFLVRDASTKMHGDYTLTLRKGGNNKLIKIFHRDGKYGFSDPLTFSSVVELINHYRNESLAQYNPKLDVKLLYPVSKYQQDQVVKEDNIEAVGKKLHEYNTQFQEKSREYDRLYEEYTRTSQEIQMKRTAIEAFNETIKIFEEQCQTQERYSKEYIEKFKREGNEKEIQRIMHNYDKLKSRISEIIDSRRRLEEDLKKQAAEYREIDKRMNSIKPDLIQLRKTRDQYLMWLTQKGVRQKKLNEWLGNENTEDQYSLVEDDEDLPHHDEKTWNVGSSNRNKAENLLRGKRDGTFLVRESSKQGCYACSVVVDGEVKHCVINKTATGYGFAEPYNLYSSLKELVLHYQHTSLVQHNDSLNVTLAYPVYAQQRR
mTOR, sequence (P42345 1360-2549 limits assumed): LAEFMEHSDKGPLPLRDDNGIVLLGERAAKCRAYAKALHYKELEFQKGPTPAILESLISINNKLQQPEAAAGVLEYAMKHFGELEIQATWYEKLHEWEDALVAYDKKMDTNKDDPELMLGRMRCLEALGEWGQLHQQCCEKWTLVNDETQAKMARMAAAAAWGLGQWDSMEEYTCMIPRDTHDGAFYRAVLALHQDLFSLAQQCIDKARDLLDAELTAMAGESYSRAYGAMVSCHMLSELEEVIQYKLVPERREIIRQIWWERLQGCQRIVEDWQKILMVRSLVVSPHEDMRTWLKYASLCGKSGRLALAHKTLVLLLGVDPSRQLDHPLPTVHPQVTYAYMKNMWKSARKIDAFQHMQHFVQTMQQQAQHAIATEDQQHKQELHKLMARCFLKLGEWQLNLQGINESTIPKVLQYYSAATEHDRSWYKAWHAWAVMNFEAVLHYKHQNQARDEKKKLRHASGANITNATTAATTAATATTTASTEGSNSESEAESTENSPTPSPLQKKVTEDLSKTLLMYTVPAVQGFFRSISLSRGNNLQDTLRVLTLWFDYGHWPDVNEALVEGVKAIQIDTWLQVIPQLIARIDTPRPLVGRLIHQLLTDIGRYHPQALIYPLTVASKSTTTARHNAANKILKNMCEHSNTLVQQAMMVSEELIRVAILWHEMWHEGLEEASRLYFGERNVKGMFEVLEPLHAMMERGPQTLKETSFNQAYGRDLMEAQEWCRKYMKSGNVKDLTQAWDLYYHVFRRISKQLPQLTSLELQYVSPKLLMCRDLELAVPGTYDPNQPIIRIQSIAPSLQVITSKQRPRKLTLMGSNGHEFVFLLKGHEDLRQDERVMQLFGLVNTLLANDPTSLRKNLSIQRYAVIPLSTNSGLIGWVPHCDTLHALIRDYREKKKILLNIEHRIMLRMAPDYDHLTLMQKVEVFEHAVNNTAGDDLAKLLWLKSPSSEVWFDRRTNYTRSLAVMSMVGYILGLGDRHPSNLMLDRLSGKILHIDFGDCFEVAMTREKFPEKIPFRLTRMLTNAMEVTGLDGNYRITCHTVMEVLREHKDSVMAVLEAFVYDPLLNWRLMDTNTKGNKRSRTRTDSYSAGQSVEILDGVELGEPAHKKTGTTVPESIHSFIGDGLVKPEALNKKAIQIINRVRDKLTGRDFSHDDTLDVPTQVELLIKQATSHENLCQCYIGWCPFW
PI3K-gamma, sequence (P48736 whole entry, species assumed): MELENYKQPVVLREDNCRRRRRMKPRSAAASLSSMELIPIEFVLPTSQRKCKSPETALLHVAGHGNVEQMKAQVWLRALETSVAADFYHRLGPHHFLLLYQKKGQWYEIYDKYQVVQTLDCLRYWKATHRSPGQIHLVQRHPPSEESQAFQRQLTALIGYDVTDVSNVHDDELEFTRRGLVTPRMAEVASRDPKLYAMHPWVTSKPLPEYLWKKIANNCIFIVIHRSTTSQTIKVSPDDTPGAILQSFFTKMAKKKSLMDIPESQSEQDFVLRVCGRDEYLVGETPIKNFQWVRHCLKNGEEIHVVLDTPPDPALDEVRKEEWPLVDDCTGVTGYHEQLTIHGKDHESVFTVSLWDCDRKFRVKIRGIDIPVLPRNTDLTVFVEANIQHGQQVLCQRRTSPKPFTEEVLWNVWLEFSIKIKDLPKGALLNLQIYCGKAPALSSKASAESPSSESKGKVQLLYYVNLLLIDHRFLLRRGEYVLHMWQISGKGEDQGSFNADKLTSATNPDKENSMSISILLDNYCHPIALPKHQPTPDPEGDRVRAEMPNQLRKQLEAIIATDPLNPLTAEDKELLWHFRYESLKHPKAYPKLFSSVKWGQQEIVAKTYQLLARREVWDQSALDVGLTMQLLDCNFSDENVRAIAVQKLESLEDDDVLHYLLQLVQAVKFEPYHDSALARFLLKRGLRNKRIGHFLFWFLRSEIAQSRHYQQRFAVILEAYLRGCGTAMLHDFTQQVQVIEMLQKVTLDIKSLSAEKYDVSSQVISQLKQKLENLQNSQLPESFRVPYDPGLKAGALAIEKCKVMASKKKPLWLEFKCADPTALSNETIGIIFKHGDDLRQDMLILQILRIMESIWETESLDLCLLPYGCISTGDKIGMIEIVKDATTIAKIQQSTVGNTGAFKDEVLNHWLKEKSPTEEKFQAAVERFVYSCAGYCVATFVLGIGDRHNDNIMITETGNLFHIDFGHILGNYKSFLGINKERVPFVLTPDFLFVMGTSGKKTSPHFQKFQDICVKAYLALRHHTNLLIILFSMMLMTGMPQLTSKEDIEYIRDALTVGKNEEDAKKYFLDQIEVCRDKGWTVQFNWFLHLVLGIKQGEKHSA

| SMILES | pIC50 (LNCap) | pIC50 (mTOR) | pIC50 (PI3K-alpha) | pIC50 (PI3K-gamma) | pIC50 (MDA468) |
| --- | --- | --- | --- | --- | --- |
| CC(C)Nc1cc(N2C3CCC2COC3)nc(-c2ccc(NC(=O)Nc3ccc(CN4CCCC4)cc3)cc2)n1 [1-(4-{4-[(1-methylethyl)amino]-6-(3-oxa-8-azabicyclo[3.2.1]oct-8-yl)pyrimidin-2-yl}phenyl)-3-[4-(pyrrolidin-1-ylmethyl)phenyl]urea] | 6.96 | 8.53 | 5.96 | 5.45 | 7.10 |
| CC(C)Nc1cc(N2C3CCC2COC3)nc(-c2ccc(NC(=O)Nc3cccnc3)cc2)n1 [1-(4-{4-[(1-methylethyl)amino]-6-(3-oxa-8-azabicyclo[3.2.1]oct-8-yl)pyrimidin-2-yl}phenyl)-3-pyridin-3-ylurea] | 7.35 | 8.96 | 5.36 | ≤ 5.00 | 7.00 |
| CN(C)CCOc1ccc(NC(=O)Nc2ccc(-c3nc(NCCS(C)(=O)=O)cc(N4C5CCC4COC5)n3)cc2)cc1 [1-{4-[2-(dimethylamino)ethoxy]phenyl}-3-{4-[4-{[2-(methylsulfonyl)ethyl]amino}-6-(3-oxa-8-azabicyclo[3.2.1]oct-8-yl)pyrimidin-2-yl]phenyl}urea] | 6.32 | 7.59 | 5.73 | ≤ 5.00 | 6.38 |
| CN1CCN(c2ccc(NC(=O)Nc3ccc(-c4nc(N5C6CCC5COC6)cc(N5C[C@@H]6C[C@H]5CO6)n4)cc3)cc2)CC1 [1-[4-(4-methylpiperazin-1-yl)phenyl]-3-(4-{4-[(1S,4S)-2-oxa-5-azabicyclo[2.2.1]hept-5-yl]-6-(3-oxa-8-azabicyclo[3.2.1]oct-8-yl)pyrimidin-2-yl}phenyl)urea] | 8.00 | 8.01 | 5.75 | ≤ 5.00 | 7.74 |
| CC(C)Nc1cc(N2C3COCC2COC3)nc(-c2ccc(NC(=O)Nc3ccc(OCCN(C)C)cc3)cc2)n1 [1-{4-[2-(dimethylamino)ethoxy]phenyl}-3-{4-[4-(3,7-dioxa-9-azabicyclo[3.3.1]non-9-yl)-6-(isopropylamino)pyrimidin-2-yl]phenyl}urea] | 6.38 | 7.78 | 5.75 | 5.06 | 6.22 |
| CN1CCN(c2ccc(NC(=O)Nc3ccc(-c4nc(N5C6CCC5COC6)cc(N5C[C@H]6C[C@@H]5CO6)n4)cc3)cc2)CC1 [1-[4-(4-methylpiperazin-1-yl)phenyl]-3-(4-{4-[(1R,4R)-2-oxa-5-azabicyclo[2.2.1]hept-5-yl]-6-(3-oxa-8-azabicyclo[3.2.1]oct-8-yl)pyrimidin-2-yl}phenyl)urea] | 7.40 | 8.12 | 5.68 | 5.06 | 7.32 |
| C[C@@H]1COCCN1c1cc(N2C3CCC2COC3)nc(-c2ccc(NC(=O)Nc3ccc(N4CCN(C)CC4)nc3)cc2)n1 [1-(4-{4-[(3R)-3-methylmorpholin-4-yl]-6-(3-oxa-8-azabicyclo[3.2.1]oct-8-yl)pyrimidin-2-yl}phenyl)-3-[6-(4-methylpiperazin-1-yl)pyridin-3-yl]urea] | 8.46 | 8.60 | 5.96 | 5.53 | 8.10 |
| C[C@@H]1CN(c2cc(N3C4CCC3COC4)nc(-c3ccc(NC(=O)Nc4ccc(C(=O)N5CCN(C)CC5)cc4)cc3)n2)C[C@H](C)O1 [1-(4-{4-[(2R,6S)-2,6-dimethylmorpholin-4-yl]-6-(3-oxa-8-azabicyclo[3.2.1]oct-8-yl)pyrimidin-2-yl}phenyl)-3-{4-[(4-methylpiperazin-1-yl)carbonyl]phenyl}urea] | ≥ 9.10 | 8.45 | 6.74 | 5.99 | 9.10 |
| CN1CCN(c2ccc(NC(=O)Nc3ccc(-c4nc(N5C6CCC5COC6)c(Cl)c(N5C6CCC5COC6)n4)cc3)cc2)CC1 [1-[4-(5-chloro-4,6-di-3-oxa-8-azabicyclo[3.2.1]oct-8-ylpyrimidin-2-yl)phenyl]-3-[4-(4-methylpiperazin-1-yl)phenyl]urea] | 7.19 | 9.30 | 6.00 | 5.99 | 6.68 |
| CN1CCN(C(=O)c2ccc(NC(=O)Nc3ccc(-c4nc(C5CCOCC5)cc(N5C6CCC5COC6)n4)cc3)cc2)CC1 [1-{4-[(4-methylpiperazin-1-yl)carbonyl]phenyl}-3-{4-[4-(3-oxa-8-azabicyclo[3.2.1]oct-8-yl)-6-(tetrahydro-2H-pyran-4-yl)pyrimidin-2-yl]phenyl}urea] | ≥ 9.10 | 9.36 | 6.64 | 5.52 | 9.10 |
| CS(=O)(=O)CCNc1cc(N2C3CCC2COC3)nc(-c2ccc(NC(=O)Nc3cccnc3)cc2)n1 [1-{4-[4-{[2-(methylsulfonyl)ethyl]amino}-6-(3-oxa-8-azabicyclo[3.2.1]oct-8-yl)pyrimidin-2-yl]phenyl}-3-pyridin-3-ylurea] | 5.70 | 8.30 | 5.79 | ≤ 5.00 | 6.10 |
| CN1CCN(c2ccc(NC(=O)Nc3ccc(-c4nc(NCCS(C)(=O)=O)cc(N5C6CCC5COC6)n4)cc3)cc2)CC1 [1-[4-(4-methylpiperazin-1-yl)phenyl]-3-{4-[4-{[2-(methylsulfonyl)ethyl]amino}-6-(3-oxa-8-azabicyclo[3.2.1]oct-8-yl)pyrimidin-2-yl]phenyl}urea] | 7.77 | 7.84 | 5.74 | ≤ 5.00 | 7.72 |
| O=C(Nc1ccc(-c2nc(C3CCOCC3)cc(N3C4CCC3COC4)n2)cc1)Nc1cccnc1 [1-{4-[4-(3-oxa-8-azabicyclo[3.2.1]oct-8-yl)-6-(tetrahydro-2H-pyran-4-yl)pyrimidin-2-yl]phenyl}-3-pyridin-3-ylurea] | 8.40 | 9.49 | 5.57 | ≤ 5.00 | 6.70 |
| CN1CCN(c2ccc(NC(=O)Nc3ccc(-c4nc(C5CCOCC5)cc(N5C6CCC5COC6)n4)cc3)cn2)CC1 [1-[6-(4-methylpiperazin-1-yl)pyridin-3-yl]-3-{4-[4-(3-oxa-8-azabicyclo[3.2.1]oct-8-yl)-6-(tetrahydro-2H-pyran-4-yl)pyrimidin-2-yl]phenyl}urea] | ≥ 9.10 | 8.92 | 5.59 | ≤ 5.00 | 8.40 |
| CN(C)Cc1cc(N2C3CCC2COC3)nc(-c2ccc(NC(=O)Nc3cccnc3)cc2)n1 [1-(4-{4-[(dimethylamino)methyl]-6-(3-oxa-8-azabicyclo[3.2.1]oct-8-yl)pyrimidin-2-yl}phenyl)-3-pyridin-3-ylurea] | 6.22 | 7.96 | 5.50 | < 5.00 | 6.00 |
| CN1CCN(Cc2ccc(NC(=O)Nc3ccc(-c4nc(NC5CCOCC5)cc(N5C6CCC5COC6)n4)cc3)cc2)CC1 [1-{4-[(4-methylpiperazin-1-yl)methyl]phenyl}-3-{4-[4-(3-oxa-8-azabicyclo[3.2.1]oct-8-yl)-6-(tetrahydro-2H-pyran-4-ylamino)pyrimidin-2-yl]phenyl}urea] | 7.40 | 8.20 | 6.03 | 5.66 | 7.19 |
| CN1CCN(Cc2ccc(NC(=O)Nc3ccc(-c4nc(NCCS(C)(=O)=O)cc(N5C6CCC5COC6)n4)cc3)cc2)CC1 [1-{4-[(4-methylpiperazin-1-yl)methyl]phenyl}-3-{4-[4-{[2-(methylsulfonyl)ethyl]amino}-6-(3-oxa-8-azabicyclo[3.2.1]oct-8-yl)pyrimidin-2-yl]phenyl}urea] | 6.40 | 7.76 | 5.40 | 4.97 | 6.30 |
